From PubChem BioAssay (NCI)
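Cultured in 96-well plates, cells were exposed to test compound for 48 hours across five concentrations. GI50 is the concentration that inhibits growth by half. At the TGI there is no net growth.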

Key:
Assay in all cases: inhibition of tumour cell growth, NCI panel, 48 h
[1] = test system: RXF 393 renal
[2] = test system: HOP-62 NSCLC
[3] = test system: UACC-257 melanoma
[4] = test system: HT29 colon
[5] = test system: UO-31 renal
[6] = test system: A498 renal
[7] = test system: IGROV1 ovarian
[8] = test system: NCI-H522 lung
[9] = test system: UACC-62 melanoma
[10] = test system: OVCAR-3 ovarian
[11] = test system: MALME-3M melanoma
[12] = test system: NCI/ADR-RES ovarian
[13] = test system: EKVX NSCLC
[14] = test system: ACHN renal
[15] = test system: RPMI-8226 leukemia
[16] = test system: MDA-MB-231 breast
[17] = test system: SF-539 CNS
[18] = test system: MCF7 breast
[19] = test system: SNB-75 CNS
[20] = test system: DU-145 prostate
[21] = test system: CCRF-CEM leukemia
[22] = test system: SR leukemia
[23] = test system: COLO 205 colon
[24] = test system: SK-MEL-2 melanoma
[25] = test system: MOLT-4 leukemia
[26] = test system: OVCAR-8 ovarian
[27] = test system: MDA-MB-435
[28] = test system: SK-MEL-28 melanoma
[29] = test system: SK-MEL-5 melanoma
[30] = test system: K-562 leukemia
[31] = test system: PC-3 prostate
[32] = test system: HCT-15 colon
[33] = test system: CAKI-1 renal
[34] = test system: U251 CNS
[35] = test system: T-47D breast
[36] = test system: M14 melanoma
[37] = test system: SNB-19 CNS
[38] = test system: HS 578T breast
[39] = test system: HL-60(TB) leukemia
[40] = test system: HCT-116 colon
[41] = test system: TK-10 renal
[42] = test system: HOP-92 NSCLC
[43] = test system: SF-295 CNS
[44] = test system: NCI-H23 lung
[45] = test system: NCI-H226 lung
[46] = test system: SK-OV-3 ovarian
[47] = test system: HCC-2998 colon
[48] = test system: A549 NSCLC
[49] = test system: SN12C renal
[50] = test system: SF-268 CNS
[51] = test system: BT-549 breast
[52] = test system: NCI-H460 lung
[53] = test system: KM12 colon
[54] = test system: SW-620 colon
[55] = test system: LOX IMVI melanoma
[56] = test system: OVCAR-4 ovarian
[57] = test system: OVCAR-5 ovarian

`COc1ccc2cnc(N)c(C#Cc3cc(C(=O)Nc4ccc(CN5CCN(C)CC5)c(C(F)(F)F)c4)cnc3C)c2c1` gave a GI50 [1] of 488 nM, a TGI [1] of 1280 nM and a GI50 [2] of 1190 nM. The TGI [2] was over 18800 nM, the GI50 [3] was 1200 nM and the TGI [3] was 14400 nM. For the same compound, the GI50 [4] was 112 nM, the TGI [4] was 6010 nM and the GI50 [5] was 412 nM. For the same compound, the TGI [5] was 1220 nM, the GI50 [6] was 680 nM and the TGI [6] was 3040 nM. The GI50 [7] was 318 nM, the TGI [7] was over 40200 nM and the GI50 [8] was 7810 nM. It also gave a TGI [8] of 32900 nM, a GI50 [9] of 190 nM and a TGI [9] of 4200 nM. For the same compound, the GI50 [10] was 11400 nM, the TGI [10] was over 50000 nM and the GI50 [11] was 70.8 nM. The TGI [11] was 1830 nM, the GI50 [12] was 10300 nM and the TGI [12] was over 34700 nM. For the same compound, the GI50 [13] was 3660 nM, the TGI [13] was 19400 nM and the GI50 [14] was 449 nM. It also gave a TGI [14] of 3540 nM, a GI50 [15] of 2550 nM and a TGI [15] of 23100 nM. It also gave a GI50 [16] of 158 nM, a TGI [16] of 3910 nM and a GI50 [17] of 974 nM. For the same compound, the TGI [17] was 7910 nM, the GI50 [18] was 1430 nM and the TGI [18] was 22200 nM. For the same compound, the GI50 [19] was 801 nM, the TGI [19] was 8900 nM and the GI50 [20] was 2430 nM. It also gave a TGI [20] of 10100 nM, a GI50 [21] of 1970 nM and a TGI [21] of 13100 nM. For the same compound, the GI50 [22] was 707 nM, the TGI [22] was 2860 nM and the GI50 [23] was 208 nM. It also gave a TGI [23] of over 50000 nM, a GI50 [24] of 3590 nM and a TGI [24] of 14600 nM. For the same compound, the GI50 [25] was 906 nM, the TGI [25] was 26800 nM and the GI50 [26] was 9330 nM. The TGI [26] was over 28900 nM, the GI50 [27] was 240 nM and the TGI [27] was 6990 nM. It also gave a GI50 [28] of 372 nM, a TGI [28] of 1290 nM and a GI50 [29] of 1060 nM. It also gave a TGI [29] of 7900 nM, a GI50 [30] of 5 nM and a TGI [30] of 749 nM. For the same compound, the GI50 [31] was 2690 nM, the TGI [31] was 9170 nM and the GI50 [32] was 1690 nM. The TGI [32] was 12900 nM, the GI50 [33] was 1560 nM and the TGI [33] was 9250 nM. For the same compound, the GI50 [34] was 1080 nM, the TGI [34] was 2810 nM and the GI50 [35] was over 50000 nM. It also gave a TGI [35] of over 50000 nM, a GI50 [36] of 124 nM and a TGI [36] of 5350 nM. The GI50 [37] was 3710 nM, the TGI [37] was 14700 nM and the GI50 [38] was 269 nM. The TGI [38] was 1500 nM, the GI50 [39] was 1070 nM and the TGI [39] was over 50000 nM. For the same compound, the GI50 [40] was 498 nM, the TGI [40] was 9880 nM and the GI50 [41] was 3220 nM. For the same compound, the TGI [41] was 12400 nM, the GI50 [42] was 62.9 nM and the TGI [42] was 796 nM. For the same compound, the GI50 [43] was 9470 nM, the TGI [43] was over 33700 nM and the GI50 [44] was 1480 nM. The TGI [44] was 12500 nM, the GI50 [45] was 383 nM and the TGI [45] was 2590 nM. For the same compound, the GI50 [46] was over 21100 nM, the TGI [46] was over 50000 nM and the GI50 [47] was over 37200 nM. For the same compound, the TGI [47] was over 50000 nM, the GI50 [48] was 6590 nM and the TGI [48] was over 26900 nM. The GI50 [49] was 490 nM, the TGI [49] was over 25300 nM and the GI50 [50] was 2680 nM. For the same compound, the TGI [50] was over 29600 nM, the GI50 [51] was 4220 nM and the TGI [51] was 16400 nM. It also gave a GI50 [52] of 1230 nM, a TGI [52] of 4460 nM and a GI50 [53] of 5 nM. It also gave a TGI [53] of 9240 nM, a GI50 [54] of 692 nM and a TGI [54] of 6250 nM. For the same compound, the GI50 [55] was 153 nM, the TGI [55] was 8930 nM and the GI50 [56] was 1710 nM. It also gave a TGI [56] of 14600 nM, a GI50 [57] of 640 nM and a TGI [57] of 1730 nM.
